Source: patent US4556565A, “Sweetener composition, process for making the same, and comestibles comprising said sweetener composition” (priority 1983, dated 1985)
Where a SMILES comes first, the peptide text is derived from it.

How the values were obtained:
bacteria in the mouth = details: cited from earlier work
[1] = Cold water solubility test (time to dissolve); assay type: physicochemical; details: 15 g/100 ml of water, 10° C., magnetic stirrer (3 turns/sec)
Text: A magnetic stirrer (3 turns/sec) was used to agitate each sample.

[2] = cited from earlier work
[3] = Residual APM in chewing gum on standing at 32° C.; assay type: physicochemical; details: calcium carbonate in the chewing gum base

| Compound | Dental caries causing effect / bacterial action in the mouth (bacteria in the mouth) | Cold water solubility of sweetener compositions [1] [s] | Dispersibility or solubility in water [2] | Stability of APM in chewing gum containing calcium carbonate [3] |
| --- | --- | --- | --- | --- |
| OC[C@@H](O)[C@@H](O[C@H]1O[C@H](CO)[C@@H](O)[C@H](O)[C@H]1O)[C@H](O)[C@@H](O)CO [hydrogenated maltose] | not subjected to the bacterial action in the mouth | – | – | – |
| COC(=O)[C@H](Cc1ccccc1)NC(=O)[C@@H](N)CC(=O)O [APM, L-aspartyl-L-phenylalanine methyl ester] (H-Asp-Phe-OMe) | low dental caries causing effect | 900 | low dispersibility or solubility in water | rapidly decomposed by calcium carbonate |
